We go through ten molecules from PubChem BioAssay (NCI).

Among the test systems are 786-0 renal; CCRF-CEM leukemia; HOP-62 NSCLC; IGROV1 ovarian; NCI-H522 lung; OVCAR-5 ovarian; OVCAR-8 ovarian; RXF 393 renal; SK-MEL-2 melanoma; SNB-75 CNS.
Holding throughout (test): NCI tumour cell line growth inhibition, 48 h

Each structure is given as a SMILES string.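 All cell lines were grown in 96-well plates and treated with compound for 48 hours. GI50 marks 50% less growth. TGI: concentration producing complete growth inhibition.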

As for `COc1ccc(CNc2c3ccccc3nc3ccc(OC)cc23)cc1`, the GI50 in the assay on 786-0 renal was 2020 nM; with CCRF-CEM leukemia, 3.09 µM; in the assay on HOP-62 NSCLC it was 3.38 µM; in the assay with IGROV1 ovarian it was 3.02 µM; with NCI-H522 lung, 3.17 µM; with OVCAR-5 ovarian, 2.64 µM. In addition, the GI50 with OVCAR-8 ovarian is 3.04 µM; with RXF 393 renal, 1520 nM; with SK-MEL-2 melanoma it was 2.37 µM; in the assay on SNB-75 CNS it was 2.19 µM. For the same molecule, the TGI worked out at 4.55 µM with 786-0 renal; 13.3 µM in the assay with CCRF-CEM leukemia; 15.4 µM in the assay on HOP-62 NSCLC; 11.1 µM with IGROV1 ovarian; 14.3 µM in the assay on NCI-H522 lung; 9.52 µM with OVCAR-5 ovarian. Moreover, the TGI came to 13.5 µM with OVCAR-8 ovarian, 3.04 µM in the assay with RXF 393 renal, 6.2 µM in the assay with SK-MEL-2 melanoma and 8.24 µM in the assay on SNB-75 CNS.

As for `COc1cc2c(Oc3ccc4[nH]c(C)cc4c3F)ccnc2cc1OCC1(N)CC1`, the GI50 is 1020 nM with 786-0 renal; 1.57 µM with CCRF-CEM leukemia; 1.59 µM with HOP-62 NSCLC; 1.16 µM in the assay on IGROV1 ovarian; 1.27 µM with NCI-H522 lung; 3.37 µM in the assay on OVCAR-5 ovarian. In addition, the GI50 in the assay with OVCAR-8 ovarian is 2.92 µM; in the assay with RXF 393 renal, 671 nM; in the assay on SK-MEL-2 melanoma, 1.68 µM; in the assay on SNB-75 CNS it was 0.651 µM. For the same molecule, the TGI in the assay on 786-0 renal was determined as 3.46 µM; with CCRF-CEM leukemia, 12.9 µM; in the assay on HOP-62 NSCLC it was 35.6 µM; with IGROV1 ovarian, 13 µM; in the assay on NCI-H522 lung, 3.46 µM; in the assay with OVCAR-5 ovarian it was 10.3 µM. For the same molecule, the TGI is greater than 100 µM with OVCAR-8 ovarian, 4.22 µM in the assay on RXF 393 renal, 3.79 µM with SK-MEL-2 melanoma and 2.46 µM with SNB-75 CNS.

For the molecule `COc1ccc(C(=O)OC2C=COC(C)C2OC(=O)c2ccc(OC)cc2)cc1` (stereo unspecified), the TGI in the assay on 786-0 renal is greater than 86.6 µM; in the assay on CCRF-CEM leukemia it was 52.4 µM; with HOP-62 NSCLC it was greater than 100 µM; in the assay with IGROV1 ovarian, greater than 83.6 µM; in the assay with NCI-H522 lung it was 30.6 µM; in the assay on OVCAR-5 ovarian, greater than 100 µM. Besides, the TGI was greater than 73.7 µM in the assay on OVCAR-8 ovarian, 20.9 µM in the assay on RXF 393 renal, 43.2 µM in the assay on SK-MEL-2 melanoma and 51.7 µM with SNB-75 CNS.

As to `NC1CCCCC1N.O=S(=O)([O-])CCCN1CCOCC1.O=S(=O)([O-])CCCN1CCOCC1.[Pt+4]`, the GI50 in the assay with 786-0 renal was 5700 nM; in the assay on CCRF-CEM leukemia it was 5.16 µM; in the assay on HOP-62 NSCLC it was greater than 100 µM; in the assay on IGROV1 ovarian it was 18.1 µM; with NCI-H522 lung it was 4.64 µM; in the assay with OVCAR-5 ovarian, 26 µM. The GI50 was 10.6 µM in the assay on OVCAR-8 ovarian, greater than 49400 nM with RXF 393 renal, 13.3 µM in the assay with SK-MEL-2 melanoma and greater than 100 µM in the assay on SNB-75 CNS. Moreover, the TGI in the assay on 786-0 renal is greater than 100 µM; in the assay on CCRF-CEM leukemia, 58.7 µM; in the assay with HOP-62 NSCLC, greater than 100 µM; with IGROV1 ovarian it was greater than 100 µM; with NCI-H522 lung, 20.6 µM; in the assay on OVCAR-5 ovarian, greater than 100 µM. In addition, the TGI in the assay with OVCAR-8 ovarian is greater than 100 µM; in the assay with RXF 393 renal, greater than 100 µM; with SK-MEL-2 melanoma it was 44.5 µM; with SNB-75 CNS, greater than 100 µM.

On to `CCCN1CCN(c2ccc3nc(-c4ccc5nc(-c6cc(OC)ccc6OC)[nH]c5c4)[nH]c3c2)CC1`, for which the GI50 in the assay on 786-0 renal is 1930 nM; in the assay with CCRF-CEM leukemia it was 2.22 µM; with IGROV1 ovarian it was 13.5 µM; in the assay with NCI-H522 lung, 1.74 µM; in the assay with OVCAR-5 ovarian, 17.8 µM; with RXF 393 renal, 1650 nM. For the same molecule, the GI50 in the assay on SK-MEL-2 melanoma was 19.7 µM; in the assay on SNB-75 CNS, 12.8 µM. Further, the TGI in the assay with 786-0 renal was found to be 3.41 µM; in the assay with CCRF-CEM leukemia it was 4.49 µM; in the assay on IGROV1 ovarian, 30.3 µM; with NCI-H522 lung, 3.68 µM; in the assay on OVCAR-5 ovarian, 34.2 µM; in the assay on RXF 393 renal, 3.17 µM. The TGI in the assay on SK-MEL-2 melanoma came out at 37.2 µM; in the assay on SNB-75 CNS it was 26.2 µM.

Regarding `COC(=O)C12C3C4C5C3(C#N)C1C5(C(=O)OC)C42C(=O)N(C(C)C)C(C)C` (stereo unspecified), the TGI with 786-0 renal was greater than 100 µM; in the assay with CCRF-CEM leukemia it was greater than 67.5 µM; in the assay on HOP-62 NSCLC it was greater than 100 µM; in the assay with IGROV1 ovarian, greater than 100 µM; in the assay with NCI-H522 lung it was greater than 53.4 µM; with OVCAR-5 ovarian, greater than 100 µM. Moreover, the TGI with OVCAR-8 ovarian, in the assay on RXF 393 renal, with SK-MEL-2 melanoma and in the assay on SNB-75 CNS was greater than 100 µM each time.

Regarding `CCCCc1ccc(-n2c3nc(=O)n(C)c(=O)c-3nc3ccccc32)cc1`, the TGI was 32.1 µM with 786-0 renal; 41.6 µM in the assay with CCRF-CEM leukemia; 32.6 µM in the assay with HOP-62 NSCLC; 33.7 µM in the assay on IGROV1 ovarian; 20.2 µM in the assay with NCI-H522 lung; 32 µM in the assay on OVCAR-5 ovarian. Besides, the TGI with OVCAR-8 ovarian was 32.1 µM; with RXF 393 renal, 34.1 µM; with SK-MEL-2 melanoma, 24 µM; in the assay on SNB-75 CNS, 30.3 µM.

As to `C1CCN(C2OC3C(COC3N3CCCCC3)OC2OC2CCO[C@@H]2N2CCCCC2)CC1` (stereo partly specified), the TGI is greater than 100 µM with 786-0 renal; 40.4 µM in the assay with CCRF-CEM leukemia; greater than 100 µM in the assay on HOP-62 NSCLC; greater than 100 µM in the assay on IGROV1 ovarian; 25.8 µM with NCI-H522 lung; greater than 100 µM in the assay with OVCAR-5 ovarian. Besides, the TGI was 59.2 µM with OVCAR-8 ovarian, 27.5 µM with RXF 393 renal, greater than 100 µM in the assay with SK-MEL-2 melanoma and 46.2 µM in the assay with SNB-75 CNS.

For the molecule `O=C1c2cc([N+](=O)[O-])ccc2-c2cccc(F)c21`, the TGI with 786-0 renal, in the assay on CCRF-CEM leukemia, in the assay on HOP-62 NSCLC, with IGROV1 ovarian, in the assay on NCI-H522 lung and with OVCAR-5 ovarian was greater than 100 µM throughout. The TGI in the assay on OVCAR-8 ovarian is greater than 100 µM; in the assay on RXF 393 renal, greater than 100 µM; in the assay with SK-MEL-2 melanoma, 55.7 µM; in the assay with SNB-75 CNS, greater than 100 µM.

On to `COc1ccc2c(CN3CCC[C@H]3C(=O)O)cc3cc4c(cc3c2c1)OCO4`, for which the GI50 in the assay with 786-0 renal was 16200 nM; with CCRF-CEM leukemia, 10.2 µM; with HOP-62 NSCLC, 19.4 µM; with IGROV1 ovarian it was 25.4 µM; in the assay with NCI-H522 lung, 11.1 µM; in the assay with OVCAR-5 ovarian, 38.1 µM. The GI50 with OVCAR-8 ovarian is 5.65 µM; in the assay on RXF 393 renal, 6810 nM; in the assay with SK-MEL-2 melanoma, 12.6 µM; in the assay on SNB-75 CNS, 11.4 µM. The TGI in the assay with 786-0 renal is greater than 100 µM; with CCRF-CEM leukemia it was greater than 100 µM; with HOP-62 NSCLC, 86.1 µM; in the assay on IGROV1 ovarian, greater than 100 µM; in the assay on NCI-H522 lung it was 95.2 µM; in the assay on OVCAR-5 ovarian, greater than 100 µM. Further, the TGI with OVCAR-8 ovarian was 82.3 µM; in the assay on RXF 393 renal, 23.2 µM; in the assay on SK-MEL-2 melanoma, 29.8 µM; in the assay on SNB-75 CNS, 30.1 µM.
